A word on the IC50: it is the midpoint of a concentration-inhibition curve. Low values mean inhibition by little substance, high ones a need for much substance.

Consider five molecules from ChEMBL document CHEMBL1130242, “3 Beta-(4-ethyl-3-iodophenyl)nortropane-2 beta-carboxylic acid methyl ester as a high-affinity selective ligand for the serotonin transporter” (J Med Chem, 1997).

Assay [1] concerns the target Norepinephrine transporter (Rattus norvegicus, UniProt Q9WTR4). As to the kind of experiment: In vitro inhibitory activity against radioligand [3H]-[…] binding to norepinephrine transporter (NET) in rat cortical tissue.
Assay [2] addresses Monoamine transporters; serotonin & dopamine (Rattus norvegicus) (UniProt P31652+P23977). As to the kind of experiment: Selectivity ratio is IC50 value of 5-HTT to that of DAT. Format: protein assay.
In assay [3] the target is Monoamine transporters; Norepininephrine & dopamine (Rattus norvegicus) (UniProt P23977+Q9WTR4). As to the kind of experiment: Selectivity ratio is IC50 value of NET to that of DAT. Format: protein assay.
Assay [4] concerns the target Sodium-dependent dopamine transporter (Rattus norvegicus, UniProt P23977). As to the kind of experiment: In vitro inhibitory activity against radioligand [3H]-[…] binding to dopamine transporter (DAT) in rat striatal tissue. It counts as tissue-based, Striatum.
For assay [5], the target named is Sodium-dependent serotonin transporter (Rattus norvegicus, UniProt P31652). As to the kind of experiment: In vitro inhibitory activity against radioligand [3H]paroxetine binding to serotonin transporter (5-HTT) in rat midbrain tissue. Format: tissue-based.

The structures appear in SMILES notation.

Chain of Monoamine transporters; serotonin & dopamine (Rattus norvegicus) (P23977 whole entry, looked up): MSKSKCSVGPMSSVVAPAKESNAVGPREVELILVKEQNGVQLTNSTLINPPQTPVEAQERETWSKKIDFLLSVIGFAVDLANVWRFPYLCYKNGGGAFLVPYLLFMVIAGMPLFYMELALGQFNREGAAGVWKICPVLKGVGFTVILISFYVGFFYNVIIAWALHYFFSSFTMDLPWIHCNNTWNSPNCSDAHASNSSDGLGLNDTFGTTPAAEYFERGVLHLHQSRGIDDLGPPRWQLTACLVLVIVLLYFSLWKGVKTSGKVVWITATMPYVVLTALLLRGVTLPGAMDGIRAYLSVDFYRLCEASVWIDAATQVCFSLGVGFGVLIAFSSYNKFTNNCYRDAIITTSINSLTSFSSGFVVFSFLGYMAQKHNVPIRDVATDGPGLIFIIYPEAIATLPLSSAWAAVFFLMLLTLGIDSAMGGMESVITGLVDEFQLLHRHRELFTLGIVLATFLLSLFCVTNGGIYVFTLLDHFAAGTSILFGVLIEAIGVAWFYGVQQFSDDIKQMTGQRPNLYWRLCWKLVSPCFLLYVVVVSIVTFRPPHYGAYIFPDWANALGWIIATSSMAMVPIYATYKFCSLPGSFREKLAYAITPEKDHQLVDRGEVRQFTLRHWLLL
Chain of Monoamine transporters; serotonin & dopamine (Rattus norvegicus) (P31652 whole entry, looked up): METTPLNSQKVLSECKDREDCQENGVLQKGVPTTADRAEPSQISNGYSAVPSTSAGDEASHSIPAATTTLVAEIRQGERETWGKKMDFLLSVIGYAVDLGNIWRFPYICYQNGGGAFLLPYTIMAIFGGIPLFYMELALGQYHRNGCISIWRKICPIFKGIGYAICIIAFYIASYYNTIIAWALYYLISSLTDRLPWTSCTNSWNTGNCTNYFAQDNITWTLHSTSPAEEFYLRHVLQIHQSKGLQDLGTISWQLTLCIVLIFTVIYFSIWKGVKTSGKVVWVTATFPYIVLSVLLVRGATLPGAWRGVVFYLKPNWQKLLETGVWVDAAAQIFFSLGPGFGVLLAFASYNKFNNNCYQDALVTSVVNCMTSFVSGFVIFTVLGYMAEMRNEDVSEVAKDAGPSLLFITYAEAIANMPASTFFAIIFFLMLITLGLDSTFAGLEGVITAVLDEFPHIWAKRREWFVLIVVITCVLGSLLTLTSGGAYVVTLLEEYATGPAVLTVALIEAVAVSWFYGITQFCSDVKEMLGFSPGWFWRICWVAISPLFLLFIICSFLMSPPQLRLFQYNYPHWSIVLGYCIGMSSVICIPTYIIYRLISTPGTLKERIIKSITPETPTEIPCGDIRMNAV
Chain of Sodium-dependent dopamine transporter (P23977 whole entry): as the sequence (P23977 whole entry, looked up) above
Chain of Norepinephrine transporter (Q9WTR4 whole entry): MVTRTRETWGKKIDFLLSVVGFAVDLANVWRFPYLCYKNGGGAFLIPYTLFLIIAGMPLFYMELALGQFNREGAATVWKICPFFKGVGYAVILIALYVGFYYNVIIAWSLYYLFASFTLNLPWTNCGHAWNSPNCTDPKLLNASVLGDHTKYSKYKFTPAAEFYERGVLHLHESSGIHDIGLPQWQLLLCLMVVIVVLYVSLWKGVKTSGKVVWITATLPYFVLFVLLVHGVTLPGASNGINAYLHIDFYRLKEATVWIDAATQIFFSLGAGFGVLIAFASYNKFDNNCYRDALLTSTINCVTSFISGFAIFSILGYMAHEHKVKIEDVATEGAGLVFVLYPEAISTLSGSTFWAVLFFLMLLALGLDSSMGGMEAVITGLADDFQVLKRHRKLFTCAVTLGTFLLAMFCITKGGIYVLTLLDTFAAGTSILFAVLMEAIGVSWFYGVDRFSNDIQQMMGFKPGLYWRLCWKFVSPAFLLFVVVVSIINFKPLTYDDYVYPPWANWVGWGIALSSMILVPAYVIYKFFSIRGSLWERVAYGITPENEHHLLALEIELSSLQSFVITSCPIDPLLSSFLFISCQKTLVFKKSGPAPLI
Chain of Sodium-dependent serotonin transporter (P31652 whole entry): as the sequence (P31652 whole entry, looked up) above

As to `CCc1ccc(C2CC3CC[C@H](C2C(=O)OC)N3C)cc1` (some centres undefined), the IC50 in assay [1] was found to be 39 nM. In addition, the Ratio turned out to be 0.52 in assay [2] and 71 in assay [3].
On to `COC(=O)C1C(c2ccc(Cl)cc2)CC2CC[C@H]1N2` (some centres undefined), for which the IC50 in assay [4] stood at 0.62 nM; in assay [1] it was 4.13 nM; in assay [5], 5.45 nM. The Ratio in assay [2] is 9; in assay [3] it was 7.
In the same order, the values of `COC(=O)C1C(c2cccc(I)c2)CC2CC[C@H]1N2C` (some centres undefined) are 26 nM, 1590 nM, 38.8 nM, 1.5 and 61.
In the case of `CCc1ccc(C2CC3CC[C@@H](N3)C2C(=O)OC)cc1I` (some centres undefined), the figures for the IC50 in assay [4] and in assay [1] were 329 nM and 148 nM, respectively. Moreover, the results for the Ratio in assay [2] and in assay [3] were 87 and 40, respectively.
Regarding `CCc1ccc(C2CC3CC[C@@H](N3)C2C(=O)OC)cc1` (some centres undefined), the Ratio in assay [2] was found to be 0.2; in assay [3] it was 2.5.
